Test results from PubChem BioAssay (NCI).
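All cell lines were grown in 96-well plates and treated with compound for 48 hours. TGI: total growth inhibition.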

Experiments:
Test in all cases: NCI tumour cell line growth inhibition, 48 h
[1] = test system: OVCAR-3 ovarian
[2] = test system: MDA-N
[3] = test system: HCC-2998 colon
[4] = test system: HS 578T breast
[5] = test system: M14 melanoma
[6] = test system: MDA-MB-435
[7] = test system: NCI-H460 lung
[8] = test system: K-562 leukemia
[9] = test system: RXF 393 renal
[10] = test system: SR leukemia
[11] = test system: HCT-15 colon
[12] = test system: TK-10 renal
[13] = test system: MDA-MB-231 breast
[14] = test system: COLO 205 colon
[15] = test system: XF 498 CNS
[16] = test system: DLD-1 colon
[17] = test system: DMS 114 small cell lung
[18] = test system: M19-MEL melanoma
[19] = test system: P388/ADR leukemia
[20] = test system: CAKI-1 renal

SMILES | TGI [1] [µM] | TGI [2] [µM] | TGI [3] [µM] | TGI [4] [µM] | TGI [5] [µM] | TGI [6] [µM] | TGI [7] [µM] | TGI [8] [µM] | TGI [9] [µM] | TGI [10] [µM] | TGI [11] [µM] | TGI [12] [µM] | TGI [13] [µM] | TGI [14] [µM] | TGI [15] [µM] | TGI [16] [µM] | TGI [17] [µM] | TGI [18] [µM] | TGI [19] [µM] | TGI [20] [µM]
N=C(N)SCCC(=O)CCSC(=N)N | > 100 | > 100 | > 100 | > 100 | > 100 | > 100 | > 100 | > 100 | > 100 | > 100 | > 100 | > 100 | > 100 | > 100 |  |  |  |  |  | 
COc1ccc2c(c1)OCCc1cn[nH]c1-2 | > 100 |  | > 100 |  |  |  | > 100 | > 100 | > 100 |  | > 100 |  |  | > 100 | 73.6 | > 100 | > 100 | > 100 | > 100 | 
COC(=O)C1=C(O)C(C(=O)OC)[C@]2(O)[C@@H](C(=O)OC)[C@H]1C[C@@H](c1ccccc1)[C@@H]2C(=O)OC (some centres not stated) | 31.8 | 19.1 | 27.3 | 76.8 | 24.5 | 30.6 | 37.8 | 33.4 | 19.9 | 24.1 | 26.9 | 53.5 | 49.3 |  |  |  |  |  |  | 
O=NN(CCF)C(=O)NC1CC2CCC1C2 (configuration not stated) | > 100 |  | > 100 |  |  |  | > 100 | > 100 | > 100 |  | > 100 |  |  | > 100 |  | > 100 | > 100 | > 100 | > 100 | > 100
C[S+](C)CC1OC(n2cnc3c(N)ncnc32)C(O)C1O (configuration not stated) | > 225 |  | > 225 |  |  |  | > 225 | > 225 | > 225 |  | > 225 |  |  | > 225 | > 225 | > 225 | > 225 | > 225 | > 22.5 | > 225
CC(C)OP(=O)(OC(C)C)C1=NN(c2ccc([N+](=O)[O-])cc2)C(P(=O)(OC(C)C)OC(C)C)=NN1c1ccc([N+](=O)[O-])cc1 | > 100 |  | > 100 |  | > 100 |  | > 100 | > 100 | > 100 | > 100 | > 100 | > 100 |  | > 100 | > 100 | > 100 | > 100 | > 100 |  | > 100
Cc1ccc(Sc2ccccc2[N+](=O)[O-])cc1 | > 100 |  | 68.3 |  | > 100 |  | > 100 | > 100 | 59.8 | > 100 | 62.2 | > 100 |  | 62.3 |  | > 100 |  | > 100 |  | 
CN(C)CCNC(=O)c1cccc2cc3cc(O)ccc3nc12 | 3.61 |  | 8.3 |  |  |  | 2.16 | 11.8 | 10 |  | 6.53 |  |  | 3.88 | 2.51 | 4.88 | 3.13 | 3.68 | 2.33 | 
O=Nn1c2ccccc2c2cc([N+](=O)[O-])ccc21 | 33.6 | 37.5 | > 100 | 82.9 | 47.9 | 32.8 | 54.2 | > 100 | 30.8 |  | > 100 | 32.1 | 39.9 | > 100 |  |  |  |  |  | 31.6
